# Laboratory results from US20160168537A1, “DIFFERENTIATED CELLULAR COMPOSITIONS AND METHODS FOR THEIR PREPARATION AND USE” (LIFE TECHNOLOGIES CORPORATION, priority 2013, published 2016).
# Columns and labels:
# CYP2B6 [1] = details: primary human hepatocytes, via PXR activation; stated as typical behaviour; cited from earlier work
# CYP2B6 [2] = test: P450 induction assay in HepaRG cells (CYP2B6 activity, hydroxybupropion formation from bupropion); type: cell-based; details: HepaRG cells cultured without matrix overlay; 10 μM RIF, 72 hours of treatment; induction is seen only when the cells are overlayed
# Description: Cryopreserved HepaRG™ cells (Life Technologies Corporation) are terminally differentiated prior to cryopreservation. Frozen HepaRG™ cells were thawed and plated per manufacturer's instructions and placed into 37° C., 5% CO2 cell culture incubator. 24 hours after plating, media was aspirated and cells were overlayed using 0.35 mg/mL Geltrex® matrix in 4° C. in 770 media. 72 hours after plating, media was aspirated and media was exchanged with either 740 or 750 media containing 0.1% DMSO, 50 μM omeprazole (OMP), 1 mM Phenobarbital (PB), or 10 μM Rifampicin (RIF). 740 and 750 media containing vehicle or prototypical inducers was replaced daily for a total of 72 hours of treatment. Day 6 of culture (24 hours after last dosing), P450 activity was evaluated and total RNA was isolated. P450 activity was evaluated utilizing in situ incubations of prototypical substrates (100 μM phenacetin, 500 bupropion, 10 μM midazolam, or 200 μM testosterone) in Hanks' Balanced Salts Solution (HBSS) for 1 hour at 37° C. shaking on microplate shaker @600 rpm. After in situ incubations were completed, incubation matrix (supernatant/HBSS) was removed from cell monolayer and metabolite formation was evaluated by LC/MS-MS analysis. Microphotographs were taken daily to monitor morphological changes.
compound,measurement,setting,value
"CO[C@H]1/C=C/O[C@@]2(C)Oc3c(C)c(O)c4c(O)c(c(/C=N/N5CCN(C)CC5)c(O)c4c3C2=O)NC(=O)/C(C)=C\C=C\[C@H](C)[C@H](O)[C@@H](C)[C@@H](O)[C@@H](C)[C@H](OC(C)=O)[C@@H]1C [RIF, Rifampicin]",induction of CYP2B6 enzyme activity,CYP2B6 [1],induces
same,induction of CYP2B6,CYP2B6 [2],does not induce
